Measurements from patent US8408292B2, “Method for pre-treatment of subterranean sites adjacent to water injection wells” (E.I. du Pont de Nemours and Company, priority 2010, dated 2013).

Columns and labels:
[1] = Example 2: titration of amine coated core sand in brine #2 with 1N HCl, amine in solution by GC; format: physicochemical; details: core sand in brine #2, titrated with 1N HCl
Method: Helium was used as the carrier gas.
38 milligrams (mg) of N N-Dimethyl-1-Dodecanamine (hereafter referred to as “the amine”) was added to 10.210 gr of Pentane. This solution was added to 10.1845 gr of specific sand layers (Oa and Ob) obtained from the Schrader Bluff formation of the Milne Point Unit of the Alaskan North slope. The oil content of the sand was first removed using a mixture of methanol and toluene (50/50, volume/volume) as solvent washes. The solvent mixture was subsequently evaporated off the core sand to produce clean, dry, flowable core sand. This sand was mixed with the amine and pentane solution to produce a slurry. This slurry was thoroughly mixed and the pentane was evaporated off leaving the amine on the sand (hereafter referred to as sand/amine mixture). 100 ml of brine #2 (Table 3) was added to the sand/amine mixture to create the sand/amine/brine mixture. […] The fact that the amine was not detected underlined its strong binding to the sand particles. […] The data underlines the remarkable efficiency of an acid at ionizing and removing the amine from the sand.

[2] = Example 4: titration of sand/amine/brine mixture with 10% nitric acid, amine in solution by GC; details: core sand in brine #2, titrated with 10 wt % nitric acid
Method: (§1) Concentration of amines, in media and water, were analyzed by gas chromatography (GC). An Agilent Model 5890 (Agilent, Wilmington, Del.), GC equipped with a […] and a split/splitless injector, a DB-FFAP column (30 meter length×0.32 millimeter (mm) […]×0.25 micrometer particle size). […] The system was calibrated using a sample of N,N-Dimethyl-1-Dodecaneamine (Aldrich). Helium was used as the carrier gas. A temperature gradient of 50 degrees Celsius (° C.) to 250° C. at 30° C. increase per minute (min) was used.
The procedure outlined in Example 2 was used to produce the sand/amine mixture except that 519 mg of the amine, 10 gr of Pentane. and 60.062 gr of sand from the Oa and Ob layers were used. 29.065 gr of this sand/amine mixture was added to 100 ml of brine #2 (Table 3) to create the sand/amine/brine mixture. […] The concentration of the amine in the water should have been about […] if all the amine was dissolved in brine #2. […] 0.1 ml of 10 weight percent (wt %) nitric acid in water was added to this solution, and the pH and the amine concentration were measured again.

[3] = Example 5: titration of sand/amine/brine mixture with 10% acetic acid, amine in solution by GC; details: core sand in brine #2, titrated with 10 wt % acetic acid
Method: as §1
The same procedure outlined in Example 4 was repeated here to produce the sand/amine mixture. 30.85 grams (gr) of the sand/amine mixture was added to 100 ml of brine #2 (Table 3) to create the sand/amine/brine mixture.

CCCCCCCCCCCCN(C)C [N-N-dimethyl-1-dodeanamine, N N-Dimethyl-1-Dodecanamine]
pH below which complete ionization and solubilization of the amine in the water was observed [1]: ~6.0 pH | pH below which complete ionization and solubilization in the water of the amine was observed [2]: ~6.7 pH | pH below which complete ionization and solubilization in the water of the amine was observed [3]: ~6.7 pH
